Measured values from US11786492B2, “Therapeutic agent for phosphodiesterase inhibition and its related disorders” (Novalead Pharma Inc, priority 2017, dated 2023).
Marks after values point to notes of the source that are not given here.

Key:
PDE4 (Human U937 cells) = test: Radiolabeled enzyme assay PDE4; format: biochemical; settings: 1.01 μM [3H]cAMP+cAMP
Method: (§1) Enzyme assays have been optimized for incubation time, substrate concentration and method of end-product determination.

Human IL-10 = test: IL-10 release from stimulated PBMCs, ELISA; format: cell-based; settings: LPS 100 ng/mL, 18 hrs
Method: (§2) Fresh human blood from healthy volunteer was collected in anticoagulant (5 mM) ethylene diamine tetra acetic acid (EDTA) containing tubes. The growth medium used was RPMI-1640 medium (with 3% FBS) and incubated at 37° C. for 60 mins in a 5% CO2 incubator with vehicle used as 1% DMSO. The cell viability was checked at various time points using Alamar blue and fluorescence readings were taken at excitation of 544 nm and emission of 590 nm.
PBMCs were stimulated with different stimulators as follows: • a. Cells were exposed to stimulator LPS at 100 ng/mL for 18 hrs to stimulate TNF-α, IL-6, IFN-γ, IL10, IL-1β • b. Cells were exposed to stimulator IFN-γ+LPS at 100 ng/mL+1 μg/mL for 18 hrs to stimulate IL-12 • c. Cells were exposed to stimulator PMA+Ionomycin at 50 ng/mL+1 μg/mL for 18 hrs to stimulate IL-23, IL-22, IL-17A, IL-17F
After 18 hrs supernatants were collected and centrifuged to remove any cell debris and aliquots were used for ELISA.

HaCaT cells = test: Cell viability of HaCaT cells, Alamar blue; format: cell-based, human; settings: for Concentration which exhibited cell viability of 70%: HaCaT cells, maximum concentration for stimulation study
Method: HaCaT cells were maintained in T-75 cm2 flask in Dulbecco's modified Eagle medium supplemented with FBS (10%), L-glutamine (2 mM), penicillin (100 ug/ml), streptomycin (100 ug/ml) at 37° C. in 5% CO2 incubator. Cell growth was maintained to 70-80% confluence for seeding and vehicle used was 1% DMSO. The cell viability was checked at various time points using Alamar blue and fluorescence readings were taken at excitation of 544 nm and emission of 590 nm.

PDE1 (Bovine brain) = test: Radiolabeled enzyme assay PDE1; format: biochemical; settings: 1.01 μM [3H]cAMP+cAMP
Method: as §1

PDE2 (Human platelets) = molecular target: T1, PDE2 (Human platelets) (Homo sapiens, UniProt O00408); test: Radiolabeled enzyme assay PDE2; format: biochemical; settings: read-out: % inhibition at 30 μM, 1.01 μM [3H]cAMP+cAMP
T1 construct: PDE2 (Human platelets); from tissue; host or cells: human platelets
T1 sequence (O00408 whole entry): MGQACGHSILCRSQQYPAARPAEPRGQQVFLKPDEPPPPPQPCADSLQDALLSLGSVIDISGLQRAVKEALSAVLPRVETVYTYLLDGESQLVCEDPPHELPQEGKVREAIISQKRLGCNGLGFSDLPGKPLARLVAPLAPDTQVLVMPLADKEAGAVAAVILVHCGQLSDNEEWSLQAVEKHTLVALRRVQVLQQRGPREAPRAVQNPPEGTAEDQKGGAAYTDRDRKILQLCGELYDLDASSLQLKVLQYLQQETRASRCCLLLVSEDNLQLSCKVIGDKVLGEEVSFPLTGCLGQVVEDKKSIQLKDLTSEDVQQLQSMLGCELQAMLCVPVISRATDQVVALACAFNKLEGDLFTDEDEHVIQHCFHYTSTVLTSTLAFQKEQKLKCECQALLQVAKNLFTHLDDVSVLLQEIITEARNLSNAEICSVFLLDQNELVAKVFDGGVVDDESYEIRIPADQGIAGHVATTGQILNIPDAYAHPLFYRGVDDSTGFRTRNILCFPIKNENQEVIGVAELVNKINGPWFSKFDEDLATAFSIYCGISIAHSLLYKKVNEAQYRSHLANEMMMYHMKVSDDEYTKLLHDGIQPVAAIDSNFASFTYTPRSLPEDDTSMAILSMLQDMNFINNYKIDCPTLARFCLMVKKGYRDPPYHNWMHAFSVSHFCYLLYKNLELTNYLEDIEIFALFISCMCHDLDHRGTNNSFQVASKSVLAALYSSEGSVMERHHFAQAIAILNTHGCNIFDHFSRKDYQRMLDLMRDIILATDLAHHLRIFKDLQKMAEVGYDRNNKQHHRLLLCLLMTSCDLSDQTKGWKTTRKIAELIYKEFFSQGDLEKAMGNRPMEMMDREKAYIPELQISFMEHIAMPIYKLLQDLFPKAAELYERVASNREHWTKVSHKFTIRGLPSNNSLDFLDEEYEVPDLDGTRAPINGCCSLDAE
Method: as §1

[1] = tested on: Imiquimod induced psoriasis in BALB/c mice; test: Imiquimod induced psoriasis model in Balb/c mice; settings: for % inhibition of Ear inflamn. / Histopathology Scores Epidermal Thickness / Histopathology Scores Hyperkeratosis / Histopathology Scores Rete Peg Prolifern. / PASI score / Spleen weight / IL23 Levels (pg/ml): twice daily; for IL23 Levels (pg/ml): ear tissue lysate
Method: BALB/c mice (Sex: Female, Age: 7-8 Weeks) were used for induction of psoriasis using IMQ. Topical application of imiquimod (IMQ) in mice can induce and exacerbate psoriasis closely resembling human psoriasis. […] 3%, 4% and 5% and positive control of Tenovate (Clobetasol) 0.05% cream. In all 63 mg cream containing 5% of IMQ was applied to dorsal area (shaved back) and right ear for 8 days. Topical formulations from Example 7 were used during this experiment.
The parameters investigated were ear thickness change, % inhibition of ear inflammation, Psoriatic Area Severity Index (PASI). Histopathology was performed of right ear and dorsal skin by H & E staining. The biomarker in this study was inflammatory cytokine IL-23 analyzed by ELISA obtained from tissue lysate of ear region where IMQ and doses were applied.

human PBMCs = test: Cell viability of human PBMCs, Alamar blue; format: cell-based; settings: for Concentration which exhibited cell viability of 70%: PBMCs, maximum concentration for stimulation study
Method: as §2

PDE5 (Human platelets) = molecular target: T2, PDE5 (Human platelets) (Homo sapiens, UniProt O76074); test: Radiolabeled enzyme assay PDE5; format: biochemical; settings: read-out: % inhibition at 30 μM, 1.01 μM [3H]cGMP+cGMP
T2 construct: PDE5 (Human platelets); from tissue; host or cells: human platelets
Method: as §1

PDE3 (Human platelets) = molecular target: T3, PDE3 (Human platelets) (Homo sapiens, UniProt Q14432); test: Radiolabeled enzyme assay PDE3; format: biochemical; settings: read-out: % inhibition at 30 μM, 1.01 μM [3H]cAMP+cAMP
T3 construct: PDE3 (Human platelets); from tissue; host or cells: human platelets
T3 sequence (Q14432 whole entry): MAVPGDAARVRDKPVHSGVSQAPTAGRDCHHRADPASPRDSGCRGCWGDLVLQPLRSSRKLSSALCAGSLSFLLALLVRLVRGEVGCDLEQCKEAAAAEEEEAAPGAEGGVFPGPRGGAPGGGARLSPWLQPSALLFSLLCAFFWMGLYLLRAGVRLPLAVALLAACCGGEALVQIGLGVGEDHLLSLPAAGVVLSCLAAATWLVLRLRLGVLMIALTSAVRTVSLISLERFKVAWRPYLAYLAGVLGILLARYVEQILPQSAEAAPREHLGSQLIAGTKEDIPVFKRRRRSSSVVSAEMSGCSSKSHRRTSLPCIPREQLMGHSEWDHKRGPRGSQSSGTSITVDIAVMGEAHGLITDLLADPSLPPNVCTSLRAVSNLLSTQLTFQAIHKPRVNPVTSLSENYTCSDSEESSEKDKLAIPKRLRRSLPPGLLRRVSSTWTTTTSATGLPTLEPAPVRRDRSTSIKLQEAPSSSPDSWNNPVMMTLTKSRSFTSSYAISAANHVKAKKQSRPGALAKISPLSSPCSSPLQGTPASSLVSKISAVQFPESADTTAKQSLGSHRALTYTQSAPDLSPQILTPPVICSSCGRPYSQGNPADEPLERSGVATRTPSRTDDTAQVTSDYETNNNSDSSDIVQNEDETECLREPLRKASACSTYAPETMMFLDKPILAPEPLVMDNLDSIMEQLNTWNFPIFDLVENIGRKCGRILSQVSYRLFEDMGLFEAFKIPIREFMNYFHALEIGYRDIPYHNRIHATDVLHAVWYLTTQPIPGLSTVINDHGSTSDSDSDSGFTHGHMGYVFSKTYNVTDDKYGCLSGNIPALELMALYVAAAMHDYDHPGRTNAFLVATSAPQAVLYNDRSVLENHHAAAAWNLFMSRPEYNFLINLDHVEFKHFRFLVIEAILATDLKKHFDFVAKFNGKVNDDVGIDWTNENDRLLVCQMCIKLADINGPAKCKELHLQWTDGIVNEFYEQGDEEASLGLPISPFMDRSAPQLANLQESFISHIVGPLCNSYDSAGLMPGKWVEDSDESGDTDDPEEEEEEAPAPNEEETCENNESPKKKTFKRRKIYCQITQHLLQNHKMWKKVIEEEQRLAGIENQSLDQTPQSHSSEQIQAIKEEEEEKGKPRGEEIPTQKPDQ
Method: as §1

PDE4C = PDE4C (Homo sapiens, UniProt Q08493); test: Fluorescence polarization assay PDE4C; format: biochemical; settings: substrate cAMP
Sequence of PDE4C (Q08493 whole entry, species assumed): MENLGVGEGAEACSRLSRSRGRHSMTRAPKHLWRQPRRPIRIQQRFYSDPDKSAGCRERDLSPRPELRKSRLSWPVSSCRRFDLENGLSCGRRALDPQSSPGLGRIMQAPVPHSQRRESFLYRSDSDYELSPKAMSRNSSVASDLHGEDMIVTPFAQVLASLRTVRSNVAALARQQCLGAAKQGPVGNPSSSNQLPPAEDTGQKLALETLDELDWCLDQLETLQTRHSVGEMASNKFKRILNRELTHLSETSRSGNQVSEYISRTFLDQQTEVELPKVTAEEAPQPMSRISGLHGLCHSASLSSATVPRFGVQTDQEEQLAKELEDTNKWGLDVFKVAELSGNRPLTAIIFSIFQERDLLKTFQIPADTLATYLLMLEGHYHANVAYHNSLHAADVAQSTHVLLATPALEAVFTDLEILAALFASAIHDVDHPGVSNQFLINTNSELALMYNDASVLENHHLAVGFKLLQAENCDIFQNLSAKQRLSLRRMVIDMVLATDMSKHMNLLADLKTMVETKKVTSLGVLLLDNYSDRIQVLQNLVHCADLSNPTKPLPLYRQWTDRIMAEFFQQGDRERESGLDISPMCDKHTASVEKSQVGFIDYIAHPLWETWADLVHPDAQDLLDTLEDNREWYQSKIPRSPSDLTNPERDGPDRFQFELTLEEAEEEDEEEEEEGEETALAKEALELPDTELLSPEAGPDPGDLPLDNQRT
Method: (§3) An experiment to check inhibition of various subtypes of the target Phosphodiesterase (PDE) enzyme in in-vitro assay was performed. […] PDE1A, PDE2A, PDE4A, PDE4B, PDE4C, PDE4D, PDE5A, PDE7A, PDE9A, PDE10A.

PDE7A = PDE7A (Homo sapiens, UniProt Q13946); test: Fluorescence polarization assay PDE7A; format: biochemical; settings: substrate cAMP
Sequence of PDE7A (Q13946 whole entry, species assumed): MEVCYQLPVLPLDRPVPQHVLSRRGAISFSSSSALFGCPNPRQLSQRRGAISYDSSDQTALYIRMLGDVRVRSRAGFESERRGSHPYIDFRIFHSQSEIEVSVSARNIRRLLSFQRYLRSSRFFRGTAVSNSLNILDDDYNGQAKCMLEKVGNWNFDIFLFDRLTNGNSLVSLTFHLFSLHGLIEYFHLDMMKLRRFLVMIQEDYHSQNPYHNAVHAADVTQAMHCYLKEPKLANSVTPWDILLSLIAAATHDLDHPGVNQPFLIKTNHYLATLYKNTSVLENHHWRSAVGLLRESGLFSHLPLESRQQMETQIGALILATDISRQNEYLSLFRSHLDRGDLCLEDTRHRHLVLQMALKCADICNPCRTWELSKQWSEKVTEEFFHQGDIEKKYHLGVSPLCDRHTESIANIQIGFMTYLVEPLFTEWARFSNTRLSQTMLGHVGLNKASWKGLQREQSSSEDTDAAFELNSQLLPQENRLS
Method: as §3

PDE5A = PDE5A (Homo sapiens, UniProt O76074); test: Fluorescence polarization assay PDE5A; format: biochemical; settings: substrate cGMP
Method: as §3

CC(=O)Oc1ccccc1C(=O)Nc1ncc([N+](=O)[O-])s1 [Nitazoxanide]
% inhibition at 30 μM (PDE4 (Human U937 cells)): 89%
Human IL-10 concentration (Human IL-10; 1 μM): 1799 pg/mL
Human IL-10 concentration (Human IL-10; 10 μM): 512 pg/mL
Human IL-10 concentration (Human IL-10; 25 μM): 76 pg/mL
Human IL-10 concentration (Human IL-10; 50 μM): 42 pg/mL
% Viability (±S.E.M.) (HaCaT cells; 0.1 μM, 24 hrs): 89 ± 1%
% Viability (±S.E.M.) (HaCaT cells; 0.1 μM, 48 hrs): 99 ± 9%
% Viability (±S.E.M.) (HaCaT cells; 0.1 μM, 72 hrs): 103 ± 3%
% Viability (±S.E.M.) (HaCaT cells; 1 μM, 24 hrs): 81 ± 3%
% Viability (±S.E.M.) (HaCaT cells; 1 μM, 48 hrs): 86 ± 8%
% Viability (±S.E.M.) (HaCaT cells; 1 μM, 72 hrs): 91 ± 2%
% Viability (±S.E.M.) (HaCaT cells; 10 μM, 24 hrs): 41 ± 1%
% Viability (±S.E.M.) (HaCaT cells; 10 μM, 48 hrs): 40 ± 2%
% Viability (±S.E.M.) (HaCaT cells; 10 μM, 72 hrs): 46 ± 3%
% Viability (±S.E.M.) (HaCaT cells; 50 μM, 24 hrs): 18 ± 1%
% Viability (±S.E.M.) (HaCaT cells; 50 μM, 48 hrs): 15 ± 2%
% Viability (±S.E.M.) (HaCaT cells; 50 μM, 72 hrs): 18 ± 1%
% Viability (±S.E.M.) (HaCaT cells; 100 μM, 24 hrs): 17 ± 1%
% Viability (±S.E.M.) (HaCaT cells; 100 μM, 48 hrs): 13 ± 1%
% Viability (±S.E.M.) (HaCaT cells; 100 μM, 72 hrs): 17 ± 1%
Concentration which exhibited cell viability of 70% (HaCaT cells): 1 µM
% inhibition at 30 μM (PDE1 (Bovine brain)): 18%
inhibition at 30 µM (PDE2 (Human platelets)): 13%
% inhibition of Ear inflamn. ([1]; 3% topical): −5.9%
Histopathology Scores Epidermal Thickness ([1]; 3% topical): 5.6 ± 0.4
Histopathology Scores Hyperkeratosis ([1]; 3% topical): 1.0 ± 0.0^$
Histopathology Scores Rete Peg Prolifern. ([1]; 3% topical): 1.2 ± 0.2
PASI score ([1]; 3% topical): 14.2 ± 5.1
Spleen weight ([1]; 3% topical, Day 9): 203.6 ± 22.6 mg
IL23 Levels (pg/ml) ([1]; 3% topical): 147.79^# pg/ml
% inhibition of Ear inflamn. ([1]; 4% topical): 26.1%
Histopathology Scores Epidermal Thickness ([1]; 4% topical): 4.7 ± 0.3
Histopathology Scores Hyperkeratosis ([1]; 4% topical): 1.3 ± 0.2
Histopathology Scores Rete Peg Prolifern. ([1]; 4% topical): 1.0 ± 0.3
PASI score ([1]; 4% topical): 21.5 ± 3.4
Spleen weight ([1]; 4% topical, Day 9): 274.7 ± 54.3 mg
IL23 Levels (pg/ml) ([1]; 4% topical): 128.67* pg/ml
% inhibition of Ear inflamn. ([1]; 5% topical): 40.9%
Histopathology Scores Epidermal Thickness ([1]; 5% topical): 5.3 ± 0.6
Histopathology Scores Hyperkeratosis ([1]; 5% topical): 1.1 ± 0.1
Histopathology Scores Rete Peg Prolifern. ([1]; 5% topical): 1.1 ± 0.1
PASI score ([1]; 5% topical): 13.1 ± 1.6
Spleen weight ([1]; 5% topical, Day 9): 204.1 ± 15.3 mg
IL23 Levels (pg/ml) ([1]; 5% topical): 89.45* pg/ml
Spleen weight vs disease control (in words) ([1]; Niclosamide 2%, Nitazoxanide 3% and 5%, Clobetasol 0.05%, Day 9): marginal reduction in spleen weight
IL-23 level in ear tissue homogenates (in words) ([1]; different doses): reduction of IL-23 level
Hyperkeratosis (in words) ([1]; ear lobe histopathology): significant reduction in Hyperkeratosis
% Viability (±S.E.M.) (human PBMCs; 0.01 μM, 24 hrs): 97 ± 1%
% Viability (±S.E.M.) (human PBMCs; 0.01 μM, 48 hrs): 106 ± 8%
% Viability (±S.E.M.) (human PBMCs; 0.01 μM, 72 hrs): 113 ± 10%
% Viability (±S.E.M.) (human PBMCs; 1 μM, 24 hrs): 91 ± 2%
% Viability (±S.E.M.) (human PBMCs; 1 μM, 48 hrs): 105 ± 7%
% Viability (±S.E.M.) (human PBMCs; 1 μM, 72 hrs): 106 ± 2%
% Viability (±S.E.M.) (human PBMCs; 100 μM, 24 hrs): 76 ± 4%
% Viability (±S.E.M.) (human PBMCs; 100 μM, 48 hrs): 42 ± 4%
% Viability (±S.E.M.) (human PBMCs; 100 μM, 72 hrs): 11 ± 3%
Concentration which exhibited cell viability of 70% (human PBMCs): 50 µM
inhibition at 30 µM (PDE5 (Human platelets)): 9%
inhibition at 30 µM (PDE3 (Human platelets)): -4%

O=C(Nc1ncc([N+](=O)[O-])s1)c1ccccc1O [Tizoxanide]
Human IL-10 concentration (Human IL-10; 1 μM): 1591 pg/mL
Human IL-10 concentration (Human IL-10; 10 μM): 493 pg/mL
Human IL-10 concentration (Human IL-10; 25 μM): 76 pg/mL
Human IL-10 concentration (Human IL-10; 50 μM): 42 pg/mL
IC50 (PDE4C): 366 µM
IC50 (PDE7A): 134 µM
% Viability (±S.E.M.) (HaCaT cells; 0.1 μM, 24 hrs): 76 ± 6%
% Viability (±S.E.M.) (HaCaT cells; 0.1 μM, 48 hrs): 114 ± 2%
% Viability (±S.E.M.) (HaCaT cells; 0.1 μM, 72 hrs): 112 ± 6%
% Viability (±S.E.M.) (HaCaT cells; 1 μM, 24 hrs): 74 ± 6%
% Viability (±S.E.M.) (HaCaT cells; 1 μM, 48 hrs): 91 ± 5%
% Viability (±S.E.M.) (HaCaT cells; 1 μM, 72 hrs): 91 ± 2%
% Viability (±S.E.M.) (HaCaT cells; 10 μM, 24 hrs): 34 ± 1%
% Viability (±S.E.M.) (HaCaT cells; 10 μM, 48 hrs): 35 ± 0%
% Viability (±S.E.M.) (HaCaT cells; 10 μM, 72 hrs): 43 ± 1%
% Viability (±S.E.M.) (HaCaT cells; 50 μM, 24 hrs): 24 ± 1%
% Viability (±S.E.M.) (HaCaT cells; 50 μM, 48 hrs): 20 ± 0%
% Viability (±S.E.M.) (HaCaT cells; 50 μM, 72 hrs): 25 ± 0%
% Viability (±S.E.M.) (HaCaT cells; 100 μM, 24 hrs): 20 ± 0%
% Viability (±S.E.M.) (HaCaT cells; 100 μM, 48 hrs): 13 ± 0%
% Viability (±S.E.M.) (HaCaT cells; 100 μM, 72 hrs): 20 ± 0%
Concentration which exhibited cell viability of 70% (HaCaT cells): 1 µM
IC50 (PDE5A): 136 µM
% Viability (±S.E.M.) (human PBMCs; 0.01 μM, 24 hrs): 91 ± 3%
% Viability (±S.E.M.) (human PBMCs; 0.01 μM, 48 hrs): 96 ± 3%
% Viability (±S.E.M.) (human PBMCs; 0.01 μM, 72 hrs): 115 ± 1%
% Viability (±S.E.M.) (human PBMCs; 1 μM, 24 hrs): 84 ± 2%
% Viability (±S.E.M.) (human PBMCs; 1 μM, 48 hrs): 101 ± 4%
% Viability (±S.E.M.) (human PBMCs; 1 μM, 72 hrs): 102 ± 3%
% Viability (±S.E.M.) (human PBMCs; 100 μM, 24 hrs): 91 ± 5%
% Viability (±S.E.M.) (human PBMCs; 100 μM, 48 hrs): 64 ± 2%
% Viability (±S.E.M.) (human PBMCs; 100 μM, 72 hrs): 25 ± 2%
Concentration which exhibited cell viability of 70% (human PBMCs): 50 µM
